Molecules are shown by their SMILES. Where two headings read alike, the source gives them in different places.

One experiment addresses T1, mvNei1 (Acanthamoeba polyphaga mimivirus, UniProt Q5UQ00).
T1 construct: 6His (C); made in house; host or cells: E. coli Rosetta2 (DE3)
Nature of the experiment: mvNei1 DNA glycosylase/AP lyase activity assay on DHU:G 24-mer duplex. Type of experiment: biochemical. As to conditions: for effect on mvNei1 catalytic activity: 0.2 mM compound. The protocol: (§1) Figure 4 Comparative analysis of the effect of 2TX and TXn on Fpg/Nei DNA glycosylases. Enzyme activities were measured as described in the Figure 1 legend using […] of a 5′-[^32P]-24-mer DNA duplex containing either an 8-oxoG opposite C for LlFpg or a […] (DHU) opposite G for hNeil1 and mvNei1. The DNA probe was incubated with the indicated protein concentration and 0.2 mM TXn compounds in the presence or absence of 1 mM dithiothreitol (DTT) and TCEP (a representative experiment is illustrated by the upper histograms). The DNA probe for EMSA was 0.1 nM of 5′-[^32P]-[…] DNA duplex containing THF with LlFpg and mvNei1 (bottom panels: gel autoradiography) with the indicated conditions and as described in ‘Materials and Methods’.
(§2) Fpg, hNeil1 and mvNei1 are bifunctional DNA glycosylases associated with concerted DNA glycosylase activity (cleavage of the N-glycosidic bond between the base lesion and the C1′ of the deoxyribose) and AP lyase activity that comprises the successive cleavage of the phosphodiester bonds at the 3′ and 5′ of the resulting abasic (AP) site, respectively (β, δ-elimination). Thus, AP sites that result from the excision of the damaged base are quantitatively converted into one nucleoside gap by these enzymes. The DNA glycosylase/AP lyase activity of each enzyme was measured by incubating 20 nM of 24-mer DNA duplexes ([OG:C] and [DHU:G] for Fpg and hNeil1/mvNei1, respectively) 5′-labeling on the damaged strand (see above) with 2 nM of Fpg, or mvNei1 for 15 min or, with 20 nM of hNeil1 for 30 min at 37 °C in 10 mM Tris-HCl, pH 7.6, 150 mM NaCl, 1 mM EDTA, 0.1 mg/mL BSA and 8% DMSO. The reaction was stopped by the addition of 1 volume of formamide loading buffer (96% formamide, 20 mM Tris/HCl pH 8.0 and 2 mM Na2EDTA), heated at 80 °C for 2 min and then analyzed by 20% Urea-PAGE, as previously described. […] Under these conditions, only 50% of the substrate is converted to the cleavage product (limiting enzyme concentration conditions). For an initial evaluation of the inhibitory effect, 40 µM of 2TX/TXn was used. The thio-compound was added to the reaction mixture before the final addition of the enzyme (competition condition). For the best identified inhibitors, a dose-response curve was generated and IC50^A determined (Figure 1 and Table 1).

The target in experiment [1] is T2, LlFpg (Lactococcus lactis subsp. cremoris, UniProt P42371).
T2 construct: made in house; host or cells: E. coli BH540 (fpg defective)
Nature of the experiment: Enzyme kinetics of 8-oxoG excision by LlFpg in the presence of 2TX (double-reciprocal, Dixon, Cornish-Bowden plots). The class given is biochemical. The source says:
Kinetic experiments with LlFpg in the presence of 2TX partially support this last hypothesis (Figure S3). Although LlFpg was inhibited by 2TX, as was its E. coli homolog (EcFpg), the raw kinetic data from all the experiments appeared to be very complicated and difficult to interpret. […] In this case, no inhibitory constant (Ki) can be determined. This mechanism (also supported by the inhibition suppression by TCEP, Figure S2) is likely superimposed on other inhibitory mechanisms, a factor that makes it difficult to analyze kinetic data. To clarify, we separately analyzed kinetic data obtained for low and high 2TX concentrations (Figure S3). As expected, we observed a linear dependence of the reciprocal velocity (1/v) as a function of the reciprocal substrate concentrations (1/S) with and without the inhibitor. […] These values compare well with those determined previously for the excision of FapyG and 8-oxoG by EcFpg. […] This value is consistent with an interaction of 2TX in the active site of the enzyme. This inhibitory mechanism has not been previously described for the EcFpg enzyme. […] This mode of inhibition is in agreement with the possibility that 2TX can bind outside the active site on the free and bound enzyme. […]

The target of experiment [2] is T3, hNeil1 (Homo sapiens, UniProt Q96FI4). Nature of the experiment: hNeil1 DNA glycosylase/AP lyase activity assay on DHU:G 24-mer duplex. The class given is biochemical. Details: Overproduction was performed as described above for full length hNeil1; 6His (C); made in house; host or cells: E. coli Rosetta2 (DE3). As to conditions: for effect on hNeil1 catalytic activity: 0.2 mM compound. The protocol: as §1, §2
Target sequence in this assay (Q96FI4 whole entry): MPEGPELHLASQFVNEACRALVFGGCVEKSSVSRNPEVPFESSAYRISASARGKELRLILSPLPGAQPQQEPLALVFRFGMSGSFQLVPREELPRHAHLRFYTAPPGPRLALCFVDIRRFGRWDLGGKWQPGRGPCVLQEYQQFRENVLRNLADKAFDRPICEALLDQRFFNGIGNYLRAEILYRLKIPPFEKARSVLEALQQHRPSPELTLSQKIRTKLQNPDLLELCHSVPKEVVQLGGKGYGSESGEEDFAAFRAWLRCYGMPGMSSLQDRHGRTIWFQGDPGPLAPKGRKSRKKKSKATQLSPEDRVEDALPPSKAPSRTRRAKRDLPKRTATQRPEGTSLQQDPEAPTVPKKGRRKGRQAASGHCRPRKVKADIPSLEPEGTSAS

Experiment [3] has as its target T2, LlFpg. Nature of the experiment: LlFpg 8-oxoG-DNA glycosylase/AP lyase activity assay (Urea-PAGE radioassay). The class given is biochemical. The note with it: for IC50: catalytic activity at 37 °C, compound stock (redox mixture) in DMSO, 20 nM 8-oxoG:C 24-mer, 2 nM LlFpg. Here is the method: Figure 1 Effect of 2-thioxanthine (2TX)-derivatives on Fpg activity. A total of 20 nM of 5′-[^32P]-8-oxoG-containing 24-bp DNA duplex (labeled on the damaged strand) was incubated with 2 nM of LlFpg alone (dimethyl sulfoxide (DMSO) control) or with the indicated 2TX and 2TX-derivatives (TXn) concentrations, as described in the “Materials and Methods” section. (a) Screening of TXn for Fpg inhibition. Averages and standard deviations were obtained from at least three independent experiments. Mono- and di-thiolated compounds are highlighted in red and blue, respectively. (b) Dose-response curves for best inhibitors. Each data point represents the mean value obtained from at least three independent measurements.
as §2

Experiment [4] deals with T3, hNeil1. Nature of the experiment: EMSA, hNeil1 DNA binding to THF-containing DNA duplex. The note with it: Figure 4.
Target sequence in this assay (Q96FI4 2-290 limits assumed): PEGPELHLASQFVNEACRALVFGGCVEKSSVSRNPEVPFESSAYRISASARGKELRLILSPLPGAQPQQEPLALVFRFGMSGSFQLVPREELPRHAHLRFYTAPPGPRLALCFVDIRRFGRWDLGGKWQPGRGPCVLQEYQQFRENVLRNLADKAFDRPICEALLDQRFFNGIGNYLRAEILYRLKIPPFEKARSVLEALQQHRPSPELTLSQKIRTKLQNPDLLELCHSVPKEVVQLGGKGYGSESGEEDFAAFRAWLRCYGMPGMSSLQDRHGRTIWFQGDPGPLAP
Setting [5] is: catalytic activity at 37 °C, compound stock in DMSO, DHU:G 24-mer, read-out: IC50app^A (Fpg/Nei enzyme catalysis) mvNEI1.
The mark [6] stands for this setting: catalytic activity at 37 °C, compound stock in DMSO, DHU:G 24-mer, read-out: IC50app^A (Fpg/Nei enzyme catalysis) hNEIL1.
Setting [7] is: read-out: IC50app^A (Fpg/Nei enzyme catalysis) LlFpg.
The mark [8] stands for this setting: 1 mM TCEP (DTT to a lesser extent), Figure 4.
[9] abbreviates: IC50app^A (Fpg/Nei enzyme catalysis) LlFpg.

T2 sequence (P42371 2-273): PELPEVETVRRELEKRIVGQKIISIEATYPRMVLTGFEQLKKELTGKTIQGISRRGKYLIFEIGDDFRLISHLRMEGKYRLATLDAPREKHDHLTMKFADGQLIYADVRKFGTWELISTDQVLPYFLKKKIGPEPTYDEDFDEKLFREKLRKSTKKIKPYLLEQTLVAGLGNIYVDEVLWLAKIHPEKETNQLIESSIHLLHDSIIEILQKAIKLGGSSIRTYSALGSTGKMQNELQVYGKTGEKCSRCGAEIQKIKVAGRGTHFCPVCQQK
T1 sequence (Q5UQ00 whole entry): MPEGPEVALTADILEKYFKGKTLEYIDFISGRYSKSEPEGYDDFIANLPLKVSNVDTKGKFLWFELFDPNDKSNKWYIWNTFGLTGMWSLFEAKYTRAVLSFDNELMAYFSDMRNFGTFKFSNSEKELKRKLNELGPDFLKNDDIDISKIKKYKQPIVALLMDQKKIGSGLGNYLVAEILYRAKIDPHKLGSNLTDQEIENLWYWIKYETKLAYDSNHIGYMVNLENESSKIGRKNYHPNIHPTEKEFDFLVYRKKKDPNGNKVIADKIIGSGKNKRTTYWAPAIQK

For `O=c1[nH]c(=S)[nH]c2nc[nH]c12` [Compound 2TX, 2-thioxanthine, reference compound], the “effect on mvNei1 catalytic activity” value on mvNei1 (Figure 4) was “did not significantly affect”. The IC50 at mvNei1 (setting [5]) was more than 500 µM; on hNeil1 [2] (setting [6]), more than 500 µM; on LlFpg [3] (setting [7]) it was 48 ± 4 µM. The Ki on LlFpg [1] (high 2TX concentrations, uncompetitive, read-out: apparent Ki (Kiu)) was determined as 24.9 ± 6.56 µM; at LlFpg [1] (low 2TX concentrations, partially competitive, read-out: apparent Ki (Kic)) it was 2.19 ± 0.56 µM. In addition, the “effect on hNeil1 catalytic activity” value on hNeil1 [2] (Figure 4) was “did not significantly affect”.

For the compound `O=c1[nH]c(=S)[nH]c2[nH]c(=S)[nH]c12` [TX19], the “effect on mvNei1 catalytic activity” value on mvNei1 (Figure 4) is given as “apparent inhibitory effects”. Further, the “inhibition of mvNei1 DNA binding and catalytic activities in the presence of TCEP” value at mvNei1 (setting [8]) was “suppressed”. The figures for the IC50 at mvNei1 (setting [5]), on hNeil1 [2] (setting [6]) and at LlFpg [3] (setting [7]) were 124 ± 4 µM, 19 ± 1 µM and 15 ± 1 µM, respectively. For the same compound, the “effect on hNeil1 catalytic activity” value at hNeil1 [2] (Figure 4) was “apparent inhibitory effects”. Besides, the “inhibition of hNeil1 DNA binding and catalytic activities in the presence of TCEP” value at hNeil1 [2] (setting [8]) is “suppressed”. Also, at hNeil1 [4], the “effect on hNeil1 DNA binding activity” value is “apparent inhibitory effects”.

For `O=c1[nH]c2[nH]c(=S)[nH]c(=O)c2[nH]1` [TX14, 2-thio-6,8-dioxopurine], the IC50 on mvNei1 was more than 500 µM; at hNeil1 [2] (setting [6]), more than 500 µM; on LlFpg [3] (setting [9]), 28 ± 7 µM.

Take `FC(F)(F)c1nc(S)c2nc[nH]c2n1` [TX13, 2-trifluoromethyl-6-thiopurine]: the IC50 at mvNei1 (setting [5]) was more than 500 µM; against hNeil1 [2], more than 250 µM; on LlFpg [3] (setting [7]) it was 7.5 ± 1 µM. In addition, the “effectiveness on Fpg relative to 2TX” value at LlFpg [3] (from IC50app^A) is given as “seven times more effective than 2TX”.

`Nc1ncnc2[nH]c(S)nc12` [TX27]: the IC50 at mvNei1 amounted to 277 ± 18 µM; at hNeil1 [2] (setting [6]) it was 160 ± 16 µM; at LlFpg [3] (setting [9]), 20 ± 2 µM.

(Values after PMC7139703, “Thiopurine Derivative-Induced Fpg/Nei DNA Glycosylase Inhibition: Structural, Dynamic and Functional Insights” (International Journal of Molecular Sciences, 2020).)
